Assay results as given in patent publication US6492416B1, “4,5-diaryl-3(2H)-furanone derivatives as cyclooxygenase-2 inhibitors” (Pacific Corporation, priority 1999, dated 2002).

| Compound | melting point [°C] |
| --- | --- |
| CCC1(CC)OC(c2ccc(S(C)(=O)=O)cc2)=C(c2ccccc2)C1=O [Example 47, 2,2-Diethyl-5-{4-(methylsulfonyl)phenyl}-4-phenyl-3(2H)-furanone] | 139 to 140 |
| CCS(=O)(=O)c1ccc(C2=C(c3ccc(S(C)(=O)=O)cc3)OC(C)(C)C2=O)cc1 [Example 110, 2,2-Dimethyl-4-{4-(ethylsulfonyl)phenyl}-5-{4-(methylsulfonyl)phenyl}-3(2H)-furanone] | 198 to 203 |
| Cc1cc(C2=C(c3cccc(F)c3)C(=O)C(C)(C)O2)ccc1S(N)(=O)=O [Example 380, 5-{4-(Aminosulfonyl)-3-methylphenyl}-2,2-dimethyl-4-(3-fluorophenyl)-3(2H)-furanone] | 81 to 82 |
| Cc1ccc(C2=C(c3ccc(S(C)(=O)=O)cc3)OC(C)(C)C2=O)cc1 [Example 1, 2,2-Dimethyl-4-(4methylphenyl)-5-{4-(methylsulfonyl)phenyl}-3(2H)-furanone] | 167 to 168 |
| C[S+]([O-])c1ccc(C2=C(c3ccccc3)C(=O)C(C)(C)O2)cc1Cl (stereo not drawn) [Example 363, 5-{3-Chloro-4-(methylsulfinyl)phenyl}-2,2-dimethyl-4-phenyl-3(2H)-furanone] | 120 to 121 |
| CC1(C)OC(c2ccc(S(N)(=O)=O)cc2)=C(c2cccc(-c3ccccc3)c2)C1=O [Example 29, 5-{4-(Aminosulfonyl)phenyl}-4-(3-biphenyl)-2,2-dimethyl-3(2H)-furanone] | 160 to 161 |
| COc1c(C)cc(C2=C(c3ccc(S(C)(=O)=O)cc3)OC(C)(C)C2=O)cc1C [Example 12, 2,2-Dimethyl-4-(3,5-dimethyl-4-methoxyphenyl)-5-{4-(methylsulfonyl)phenyl}-3(2H)-furanone] | 130 to 131 |
| CC1(C)OC(c2ccc(S(C)(=O)=O)cc2)=C(c2cc3ccccc3o2)C1=O [Example 16, 4-(2-Benzo[b]furanyl)-2,2-dimethyl-5-{4-(methylsulfonyl)phenyl}-3(2H)-furanone] | 140 to 141 |
| CC(=O)c1ccc(C2=C(c3ccc(S(C)(=O)=O)cc3)OC3(CCCC3)C2=O)cc1 [Example 55, 3-(4-Acetylphenyl)-2-{4-(methylsulfonyl)phenyl}-1-oxa-spiro[4,4]non-2-en-4-one] | 126 to 130 |
| CSc1ccc(C2=C(c3cccc(F)c3)C(=O)C(C)(C)O2)cc1 [Example 166, 2,2-Dimethyl-4-(3-fluorophenyl)-5-{4-(methylthio)phenyl}-3(2H)-furanone] | 106 |
| CC1(C)OC(c2ccc(S(C)(=O)=O)c(F)c2)=C(c2ccc([N+](=O)[O-])cc2)C1=O [Example 287, 2,2-dimethyl-4-(4-nitrophenyl)-5-{3-fluoro-4-(methylsulfonyl)-phenyl}-3(2H)-furanone] | 173 to 174 |
| CC1(C)OC(c2ccc(S(C)(=O)=O)cc2)=C(c2ccc3c(c2)OCO3)C1=O [Example 8, 2,2-Dimethyl-4-(3,4-methylenedioxyphenyl)-5-{4-(methylsulfonyl)phenyl}-3(2H)-furanone] | 178 to 179 |
| C[S+]([O-])c1ccc(C2=C(c3ccccc3)C(=O)C(C)(C)O2)c(Cl)c1 (stereo not drawn) [Example 391, 5-{2-Chloro-4-(methylsulfinyl)phenyl}-2,2-dimethyl-4-phenyl-3(2H)-furanone] | 135 to 136 |
| CC1(C)OC(c2ccc(S(C)(=O)=O)cc2)=C(c2ccc(OC(F)(F)F)cc2)C1=O [Example 7, 2,2-Dimethyl-5-{4-(methylsulfonyl)phenyl}-4-{4-(trifluoromethoxy)phenyl}-3(2H)-furanone] | 118 to 120 |
| CC1(C)OC(c2ccc(S(N)(=O)=O)cc2)=C(c2ccc3c(c2)OCO3)C1=O [Example 27, 5-{4-(Aminosulfonyl)phenyl{-2,2-dimethyl-4-}3,4-(methylenedioxy)phenyl}-3(2H)-furanone] | 178 to 179 |
| CC1(C)OC(c2ccc(S(C)(=O)=O)cc2)=C(c2ccc(F)c(Cl)c2)C1=O [Example 2, 4-(3-Chloro-4-fluorophenyl)-2,2-dimethyl-5-{4-(methylsulfonyl)phenyl}-3(2H)-furanone] | 162 to 164 |
| CC1(C)OC(c2ccc(S(C)(=O)=O)cc2)=C(c2ccc(S(C)(=O)=O)cc2)C1=O [Example 109, 2,2-Dimethyl-4,5-di{4-(methylsulfonyl)phenyl}-3(2H)-furanone] | 245 to 257 |
| CC1(C)OC(c2ccc(S(C)(=O)=O)cc2)=C(c2cccc3ccccc23)C1=O [Example 13, 2,2-Dimethyl-5-{4-(methylsulfonyl)phenyl}-4-(1-naphthyl)-3(2H)-furanone] | 194 to 195 |
| CCC1(C)OC(c2ccc(S(N)(=O)=O)cc2)=C(c2ccc(OC)c(F)c2)C1=O (stereo not drawn) [Example 46, 5-{4-(Aminosulfonyl)phenyl}-2-ethyl-4-(3-fluoro-4-methoxyphenyl)-2-methyl-3(2H)-furanone] | 113 to 114 |
| CC1(C)OC(c2ccc(S(N)(=O)=O)cc2)=C(c2cc3ccccc3s2)C1=O [Example 28] | 120 to 121 |
| CSc1ccc(C2=C(c3cc(F)cc(F)c3)C(=O)C(C)(C)O2)cc1 [Example 173, 4-(3,5-difluorophenyl)-2,2-dimethyl-5-{4-(methylthio)-phenyl}-3(2H)-furanone] | 122 to 123 |
| C[S+]([O-])c1ccc(C2=C(c3ccccc3)C(=O)C(C)(C)O2)c(F)c1 (stereo not drawn) [Example 327, 2,2-Dimethyl-5-{2-fluoro-4-(methylsulfinyl)phenyl}-4-phenyl-3(2H)-furanone] | 149 to 150 |
| CC1(C)OC(c2ccc(S(N)(=O)=O)cc2)=C(c2cc3ccccc3o2)C1=O [Example 30] | 143 to 145 |
| CNS(=O)(=O)c1ccc(C2=C(c3cccc(F)c3)C(=O)C(C)(C)O2)cc1 [Example 184, 2,2-Dimethyl-5-{4-(N-methylaminosulfonyl)phenyl}-4-(3-fluorophenyl)-3(2H)-furanone] | 176 to 177 |
| Cc1cccc(C2=C(c3ccc(S(C)(=O)=O)cc3)OC3(CCCCC3)C2=O)c1 [Example 260, 3-(3-Methylphenyl)-2-{4-(methylsulfonyl)phenyl}-1-oxa-spiro[4,5]dec-2-en-4-one] | 154 to 155 |
| CCCC(=O)NS(=O)(=O)c1ccc(C2=C(c3cccc(F)c3)C(=O)C(C)(C)O2)cc1 [Example 183, 5-[4-{(n-Butyrylamino)sulfonyl}phenyl]-2,2-dimethyl-4-(3-fluorophenyl)-3(2H)-furanone] | 188 to 189 |
| CC1(C)OC(c2ccc(S(C)(=O)=O)cc2)=C(c2cccnc2)C1=O [Example 19, 2,2-Dimethyl-5-{4-(methylsulfonyl)phenyl}-4-(3-pyridyl)-3(2H)-furanone] | 164 to 166 |
| CCSc1ccc(C2=C(c3ccc(S(C)(=O)=O)cc3)OC(C)(C)C2=O)cc1 [Example 88, 2,2-dimethyl-4-{4-(ethylthio)phenyl}-5-{4-(methylsulfonyl)-phenyl}-3(2H)-furanone] | 103 to 105 |
| CSc1ccc(C2=C(c3ccc(S(C)(=O)=O)cc3)OC(C)(C)C2=O)cc1 [Example 72, 2,2-dimethyl-5-{4-(methylsulfonyl)phenyl}-4-{4-(methylthio)-phenyl}-3(2H)-furanone] | 137 to 141 |
| CC1(C)OC(c2ccc(S(C)(=O)=O)cc2)=C(c2cc3ccccc3s2)C1=O [Example 15, 4-(2-Benzo[b]thienyl)-2,2-dimethyl-5-{4-(methylsulfonyl)phenyl}-3(2H)-furanone] | 204 to 206 |
